Tests used:
[1] = system: antennae of housefly, sand fly, and mosquitoes Aedes aegypti, Anopheles gambiae, Anopheles stephensi; assay: GC-EAD antennal responses to SPME samples of clove essential oil; details: component of clove essential oil SPME sample; response by one or more of the insects; FIG. 1
Protocol: The GC-EAD antennal response of a female housefly (Musca domestica), sand fly (Phlebotomus papatasi), and mosquitoes including the species Aedes aegypti, Anopheles gambiae, and Anopheles stephensi were tested with clove essential oil. FIG. 1 is a simultaneous recording of GC flame ionization detection (FID) and electroantennographic detection (EAD) of the insect antennae to solid phase microextraction (SPME: CAR/PDMS) samples of clove essential oil in a 20 ml glass vial for 20 sec.
The following procedures were employed to test the EAD response of an insect antenna to a repellent compound. The GC-EAD technique provides an efficient tool for screening behaviorally active repellents. Several synthetic mixtures of potential insect repellent candidates, mostly sesquiterpene hydrocarbons and derivatives, were analyzed in splitless mode using a Varian CP-3800 GC equipped with a polar column (Innowax; 1.0 μm film thickness, 30 m×0.53 mm ID; J & W Scientific), and a 1:1 effluent splitter that allowed simultaneous flame ionization detection (FID) and EAD of the separated volatile compounds. Helium was used as the carrier gas, and the injector temperature was 220° C. The column temperature was 50° C. for 2 min, rising to 240° C. at 10° C./min, then held for 10 min. The outlet for the EAD was held in a humidified air stream flowing at 0.5 liter/min. over an antennal preparation. A glass capillary indifferent electrode filled with Beadle-Ephrussi Ringer, and grounded via a silver wire, was inserted into the severed insect's head with the antennae. A similar recording electrode connected to a high-impedance DC amplifier with automatic baseline drift compensation was placed in contact with the distal end of one antenna (Zhang et al., Chemoecology, 10:69-80 (2000)). The antennal signals were stored and analyzed on a PC equipped with a serial IDAC interface box and the program EAD ver. 2.5 (Syntech, Hilversum, The Netherlands). The compound 1-octen-3-ol (known attractant for many flies and mosquitoes) was included in most of the synthetic mixtures, as a positive control. […]

[2] = system: antennae of housefly, sand fly, and mosquitoes (Aedes aegypti, Aedes increpitus, Anopheles gambiae); assay: GC-EAD antennal responses to SPME samples of patchouli essential oil; details: component of patchouli essential oil SPME sample; response by one or more of the insects; FIG. 2
Protocol: The following procedures were employed to test the EAD response of an insect antenna to a repellent compound. The GC-EAD technique provides an efficient tool for screening behaviorally active repellents. Several synthetic mixtures of potential insect repellent candidates, mostly sesquiterpene hydrocarbons and derivatives, were analyzed in splitless mode using a Varian CP-3800 GC equipped with a polar column (Innowax; 1.0 μm film thickness, 30 m×0.53 mm ID; J & W Scientific), and a 1:1 effluent splitter that allowed simultaneous flame ionization detection (FID) and EAD of the separated volatile compounds. Helium was used as the carrier gas, and the injector temperature was 220° C. The column temperature was 50° C. for 2 min, rising to 240° C. at 10° C./min, then held for 10 min. The outlet for the EAD was held in a humidified air stream flowing at 0.5 liter/min. over an antennal preparation. A glass capillary indifferent electrode filled with Beadle-Ephrussi Ringer, and grounded via a silver wire, was inserted into the severed insect's head with the antennae. A similar recording electrode connected to a high-impedance DC amplifier with automatic baseline drift compensation was placed in contact with the distal end of one antenna (Zhang et al., Chemoecology, 10:69-80 (2000)). The antennal signals were stored and analyzed on a PC equipped with a serial IDAC interface box and the program EAD ver. 2.5 (Syntech, Hilversum, The Netherlands). The compound 1-octen-3-ol (known attractant for many flies and mosquitoes) was included in most of the synthetic mixtures, as a positive control.

[3] = system: Anopheles stephensi; assay: K&D module behavioral bioassay (topical repellency, biting); type: in vivo
Protocol: (§1) The bioassays were conducted with a six-cell in vitro K&D module system, as disclosed in Klun and Debboun, J. Med. Entomol. 37:177-181 (2000), loaded with an “artificial blood” (CPDA+ATP) solution.
(§2) Clove essential oil, patchouli oil, and EAD-active potential repellents, β-caryophyllene, isocaryophyllene, (+)-longifolene, and their 1:1:1 mixture, plus α-guaiene, caryophyllene oxide, and a β-caryophyllene ketone, were tested using the six-cell in vitro K&D module system (Klun and Debboun, J. Med. Entomol. 37:177-181 (2000)) loaded with an “artificial blood” (CPDA+ATP) solution on both Ae. aegypti and An. stephensi in a dose-response fashion. The K&D in vitro assay system has three components: (1) a Plexiglas™ 29.7 cm.×7.1 cm K&D module composed of six adjacent cells, each designed to hold mosquitoes and each having a rectangular 3×4 cm floor hole that is opened and closed by a sliding door; (2) a Plexiglas™ six-well 29.7 cm×7.1 cm water water-bath warmed (38° C.) reservoir with six 3×4 cm wells designed to match the sliding-door openings of the K&D module base and to contain 6 mL warmed “artificial blood” wells covered with a collagen membrane; and (3) a 29.7 cm×7.1 cm'0.4 cm Teflon® separator having six rectangular openings like the K&D module. The K&D module was connected to a constant temperature water circulator at 38° C. The cells were covered with an Edicol collagen membrane strip. Nylon organdy strips with ink cell patterns were numbered and randomly treated with […] of the tested chemical in ethanol (ethanol alone as blank control), plus DEET (ca. 10 μg/cm^2) as a positive control. This treated nylon organdy strip was placed on top of the collagen membrane. The upper section of the K & D module with the six cells each containing 5 mosquitoes (5-10 d old, starved for 24 hr before testing) was placed on top of the nylon strip. The doors to the cells were slid open so the mosquitoes could be free to feed on the “artificial blood” via the collagen membrane if they were hungry. The experiments were allowed to run for 3 minutes, and the number of mosquitoes feeding (biting) in each cell was recorded. After each experiment, the nylon and collagen strips were removed. The CPDA+ATP solution was removed and allowed to dry prior to starting the next experiment. The experiments on each chemical and each mosquito species were run three times before the bottom section with circulated water was cleaned prior to use again.

[4] = system: Aedes aegypti; assay: as above; type: in vivo
Protocol: as §1, §2

[5] = system: Aedes Aegypti, Anopheles stephensi and the sand fly P. papatasi; assay: Y-tube bioassay, statements pooled for the three species; type: in vivo, Aedes aegypti; Anopheles stephensi; Phlebotomus papatasi; details: clove oil ca. 10 mg/day, patchouli oil 15 mg/d, sesquiterpenes 1 to 35 mg/d release
Protocol: (§3) Aegypti and An. stephensi, and one species of sand fly, P. papatasi. Both the mosquitoes and the sand flies used in the study were from colonies maintained at the Walter Reed Army Institute of Research, Department of Entomology, Silver Spring, Md. This Y-tube bioassay system, equipped with CO2-enriched air (ca. 1 l/min) as an attractant, was made from three clear acrylic tubes (4″ diameter; 12″ length) with symmetrical 120° angles among the three tube arms; and a screen butterfly valve on the top part of the bottom releasing tube. These spatial repellency tests were carried out during 8:00 am-12:00 pm (photophase) time period for Ae. aegypti and 1:00-5:00 pm (shifted scotophase) time period for the species of night-flying mosquitoes and sand fly in a temperature and humidity controlled testing room (23-25° C. and 20-40% RH). Female mosquitoes or sand flies were stored at ˜25-26° C., 50-89% RH, 12:12 hr. (L/D), fed with 10% sucrose solution before testing. The candidate chemical (individual or mixture) dispenser and a blank control were placed in the upper left or right arm of the Y-tube before releasing 25-40, 6 to 10 day-old female mosquitoes (or 3 to 10 day-old sand flies) into the bottom tube via a small hole. After a 30-60 sec acclimation period, the butterfly screen valve (door) on the top of the bottom tube was opened. After 10 min., the valve was closed and the numbers of mosquitoes or sand flies in each arm (including the bottom tube) were counted. In order to minimize the position effect, the same experiment was repeated once with the treatment and blank control arms shifted using a new (clean) Y-tube olfactometer and a new batch of mosquitoes/sand flies. Data from these two replicates were pooled for χ2 goodness of fit test (df=1) between the treatment and blank control.

[6] = system: Anopheles stephensi; assay: Y-tube olfactometer behavioral bioassay (spatial repellency); type: in vivo
Protocol: as §3

[7] = system: Aedes aegypti; assay: as above; type: in vivo
Protocol: as §3

[8] = system: Phlebotomus papatasi; assay: as above; type: in vivo
Protocol: as §3

[9] = 10 μg/cm^2, DEET values are the positive control run with the chemical
[10] = Anopheles stephensi females, release rate per chemical (β-Caryophyllene 10 mg/day), 10 min
[11] = Aedes aegypti females, release rate per chemical (1-60 mg/day), 10 min
[12] = Phlebotomus papatasi females, release rate per chemical, 10 min

C=CCc1ccc(O)c(OC)c1 [eugenol]
GC-EAD antennal activity [1]: EAD-inactive (or weakly active)

C=C(C)[C@@H]1CC[C@H](C)C2=C(C1)[C@@H](C)CC2 [α-Guaiene, α-guaiene]
GC-EAD antennal activity [2]: elicited EAD-activity
% of biting (±SE) (N = 3) [3, 9]: 40 ± 0b %
% of biting (±SE) (N = 3) ([3]; 100 μg/cm^2): 0 ± 0a %
% of biting (±SE) (N = 3) ([3]; 500 μg/cm^2): 0 ± 0a %
% of biting (±SE) (N = 3) ([3]; 1000 μg/cm^2): 0 ± 0a %
% of biting (±SE) (N = 3) [4, 9]: 33 ± 7b %
% of biting (±SE) (N = 3) ([4]; 100 μg/cm^2): 0 ± 0a %
% of biting (±SE) (N = 3) ([4]; 500 μg/cm^2): 0 ± 0a %
% of biting (±SE) (N = 3) ([4]; 1000 μg/cm^2): 0 ± 0a %
spatial repellency, in words [5]: showed spatial repellency effects
Number of mosquitoes in each arm: Repellent ([6]; Anopheles stephensi females, release rate per chemical (1-60 mg/day; β-Caryophyllene 10 mg/day), 10 min): 6
Number of mosquitoes in each arm: Blank [6, 10]: 20
Number of mosquitoes in each arm: Bottom [6, 10]: 40
SAI (Spatial Activity Index) ([6]; Anopheles stephensi, β-Caryophyllene 10 mg/day): 0.54
Number of mosquitoes in each arm: Blank [7, 11]: 49
Number of mosquitoes in each arm: Bottom [7, 11]: 16
Number of mosquitoes in each arm: Repellent ([7]; Aedes aegypti females, release rate per chemical (1-60 mg/day), 10 min, two replicates pooled): 13
SAI (Spatial Activity Index) ([7]; Aedes aegypti, (Nc − Nt)/(Nc + Nt), −1 to 1, zero indicating no response): 0.58
SAI (Spatial Activity Index) ([8]; Phlebotomus papatasi): 0.78
Number of mosquitoes in each arm: Repellent ([8]; Phlebotomus papatasi (sand fly) females, release rate per chemical (1-35 mg/day), 10 min): 5
Number of mosquitoes in each arm: Blank [8, 12]: 41
Number of mosquitoes in each arm: Bottom [8, 12]: 17

Reference: patent US8057829B2, “Methods for repelling insects using sesquiterpene hydrocarbons and their derivatives” (Sterling International Inc., priority 2008, dated 2011)
